Columns and labels:
[1] = Sensory evaluation of sweetener powder by 15 panelists; assay type: in vivo; conditions: score on a scale of 5 points, 10% Brix solution
Experimental: For the sensory evaluation, the powders prepared in Examples 5 and 6 were used as an experimental group, and sugar was used as a control group. Each sample was dissolved to a concentration of 10% Brix and prepared to become the same temperature. 10 ml of each sample was collected and provided. It was expressed as a three-digit number randomly extracted using a random number table. The sample presentation order was always randomly determined, and a lukewarm water that could rinse the mouth was provided together to inspectors. The sensory laboratory was maintained at a constant temperature (25±1° C.) and no odor.
The sensory inspectors selected 15 panelists who have a high level of understanding of sensory tests and have experience in sensory tests. Training was conducted three times a week for one month, and it took an average of 30 minutes for each training session. As for the content and method of evaluation, the score was evaluated on a scale of 5 points for the intensity of sweet taste, persistence of sweet taste, body taste, and bitter taste of the control group and the experimental group. The criteria of sweet taste intensity was compared with the standard sample sugar 10% solution as 4.5 points. The closer to 1 point, the lighter the body taste, and the closer to 5 points, the heavier the taste was.

[2] = Glass transition temperature (Tg) by differential scanning calorimetry (DSC), ASTM D3418; assay type: physicochemical; conditions: raw material: crystalline allulose in powder state
Experimental: In order to measure the glass transition temperature value (Tg) of the powder product obtained in Examples 1 to 4, and Example 6, differential scanning calorimetry (DSC) analysis was performed according to the method of ASTM D3418, and the specific DSC analysis conditions are as follows.
Equipment name: DSC[differential scanning calorimetry]
Manufacturer: Perkin Elmer
Method: 30 to 250° C., 10° C./min temperature rise, N2 gas purge
The liquid product of Comparative Example 1 was not spray-dried, and measured by the glass transition temperature of the powder obtained by freeze-drying the liquid product. Allulose was measured by the glass transition temperature of crystalline allulose, Reference Example 2 was measured by the glass transition temperature of commercially available indigestible maltodextrin (Samyang Corporation, indigestible maltodextrin, DE 14.9, dietary fiber content 85%), and Reference Example 3 and Reference Example 4 were measured by pulverizing commercially available maltodextrin (Samyang Corporation., Genedex) and commercially available starch syrup (Samyang Corporation, low-intensity starch syrup) at the glass transition temperature.

Row | Compound | Body taste ([1]; 1 = lighter, 5 = heavier) | Bitter residual taste [1] | Sweet taste persistence [1] | Sweet taste ([1]; sugar 10% solution standard = 4.5 points) | Tg [2] [°C]
1 | OC[C@H]1O[C@@](CO)(O[C@H]2O[C@H](CO)[C@@H](O)[C@H](O)[C@H]2O)[C@@H](O)[C@@H]1O [Control group, sugar] | 3.3 | 2.2 | 3.2 | 4.3 | –
2 | O=C(CO)C(O)C(O)C(O)CO (centres unmarked) [Crystalline allulose, allulose] | – | – | – | – | −5.5

Reference: patent US20210244057A1, “SWEETENER POWDER COMPOSITION AND PREPARATION METHOD THEREFOR” (SAMYANG CORPORATION, priority 2018, published 2021)
